Test results reported in PubChem BioAssay (NCI).
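All cell lines were grown in 96-well plates and treated with compound for 48 hours. Here, GI50 denotes the concentration required for 50% inhibition of growth. TGI: total growth inhibition.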

Legend:
Experiment in all cases: NCI-60 cell line screen, 48 h
SK-MEL-28 melanoma = system: SK-MEL-28 melanoma
HCT-116 colon = system: HCT-116 colon
MALME-3M melanoma = system: MALME-3M melanoma
HT29 colon = system: HT29 colon
SNB-19 CNS = system: SNB-19 CNS
LOX IMVI melanoma = system: LOX IMVI melanoma
HOP-92 NSCLC = system: HOP-92 NSCLC
OVCAR-3 ovarian = system: OVCAR-3 ovarian
SK-MEL-2 melanoma = system: SK-MEL-2 melanoma
UACC-257 melanoma = system: UACC-257 melanoma

Row | Compound | TGI (SK-MEL-28 melanoma) [µM] | TGI (HCT-116 colon) [µM] | TGI (MALME-3M melanoma) [µM] | TGI (HT29 colon) [µM] | TGI (SNB-19 CNS) [µM] | TGI (LOX IMVI melanoma) [µM] | TGI (HOP-92 NSCLC) [µM] | TGI (OVCAR-3 ovarian) [µM] | TGI (SK-MEL-2 melanoma) [µM] | TGI (UACC-257 melanoma) [µM] | GI50 (SK-MEL-28 melanoma) [µM] | GI50 (MALME-3M melanoma) [µM] | GI50 (HT29 colon) [µM] | GI50 (SNB-19 CNS) [µM] | GI50 (OVCAR-3 ovarian) [µM] | GI50 (SK-MEL-2 melanoma) [µM] | GI50 (UACC-257 melanoma) [µM] | GI50 (HCT-116 colon) [µM] | GI50 (LOX IMVI melanoma) [µM] | GI50 (HOP-92 NSCLC) [µM]
1 | CC(C)(C)CI | > 100 | 39.7 | 46.6 | > 10 | 89.1 | 33.4 | 61.4 | 35.4 | 37.6 | 51.6 | – | – | – | – | – | – | – | – | – | –
2 | COc1nc(NC2OC(CO)C(O)C(O)C2O)c(N)c(=O)[nH]1 (stereo not given) | > 100 | > 100 | > 100 | > 100 | > 100 | > 100 | > 100 | > 100 | > 100 | > 100 | – | – | – | – | – | – | – | – | – | –
3 | CC1OC(CO)(n2cnc3c(N)ncnc32)C(O)C1O (stereo not given) | > 100 | > 100 | > 100 | > 100 | > 100 | > 100 | > 100 | > 100 | > 100 | > 100 | – | – | – | – | – | – | – | – | – | –
4 | COC(=O)Cc1c(C2C(CC(=O)OC)c3ccccc3N2C2OC(CO)C(O)C(O)C2O)[nH]c2ccccc12 (stereo not given) | > 100 | > 100 | > 100 | > 100 | > 100 | – | > 100 | > 100 | > 100 | > 100 | – | – | – | – | – | – | – | – | – | –
5 | CON[N+]([O-])=NC(C)C | > 100 | > 100 | > 100 | > 100 | > 100 | > 100 | > 100 | > 100 | > 100 | > 100 | – | – | – | – | – | – | – | – | – | –
6 | CCCCCCCCCCCCCCCCCCOc1ccccc1COP(=O)(O)OOCC[N+](C)(C)C | 6.2 | – | 3.21 | 5.38 | 7.76 | – | – | 2.56 | 9.65 | 6.45 | 1.59 | 1.16 | 1.21 | 1.44 | 0.993 | 1.71 | 1.54 | – | – | –
7 | O=c1oc2ccccc2n1P(=O)(Oc1ccc(Cl)cc1)n1c(=O)oc2ccccc21 | > 100 | > 100 | > 100 | > 100 | > 100 | > 100 | > 100 | > 100 | > 100 | > 100 | – | – | – | – | – | – | – | – | – | –
8 | O=C1OC(c2ccccc2Br)=N/C1=C/c1ccccc1 | > 100 | > 100 | 45.5 | > 100 | 96.8 | 38.8 | – | 35.4 | 41.7 | > 100 | – | – | – | – | – | – | – | – | – | –
9 | COc1cc(N(CCCl)CCCl)ccc1/C=N\NC(=O)c1cccnc1 | > 100 | > 100 | > 100 | > 100 | > 100 | > 100 | 45.4 | 50.4 | 62 | 63.3 | 48.4 | 38.3 | 34.8 | 52.8 | 21 | 28 | 15.3 | 26 | 32.2 | 14.1
10 | O=C1CCC2COc3ccc(O)c1c32 (stereo not given) | > 100 | > 100 | – | > 100 | 95.9 | > 100 | > 100 | > 100 | – | > 100 | – | – | – | – | – | – | – | – | – | –
11 | C#CCNC(=O)CC[C@@H](C)[C@H]1CC[C@H]2[C@@H]3CC[C@@H]4CC(=O)CC[C@]4(C)[C@H]3CC[C@]12C | 36 | 52 | 31.7 | 34.5 | 71 | 39.8 | 10.3 | 36.1 | 35.8 | 42.3 | 16.8 | 14 | 12.7 | 24.3 | 13.8 | 16.9 | 13.2 | 12.9 | 17.5 | 2.54
